Tested on: IL-1β (interleukin-1beta)
Test: ELISA for IL-1β in LPS-treated HEKa cells
Type: cell-based, human
Conditions: LPS-induced inflammatory condition, 10·M, FIG. 10
Description: ELISA (enzyme-linked immunosorbent assay) for IL-1β (interleukin-1beta) which is very closely related to atopic inflammation and psoriasis was performed.
As a specific experimental method, HEKa cells (Human Epidermal keratinocytes, adult), human-derived epidermal keratinocytes were seeded on a 24 well plate at a density of 1×10^5 cells, and cultured in an EpiLife medium (1× Human keratinocyte Growth supplement, 1× antibiotics) in an incubator under 37° C. and 5% CO2 for 24 hours.
After culturing, while an inflammatory condition was induced by treatment with LPS (lipopolysaccharides) in each well, further treatment was performed with Compound 8 of the present invention and the compound of the following Comparative Example at a concentration of 10·M, and then the cells were incubated for a certain period. After completing culturing, media were collected, and then ELISA for IL-1β was carried out, and the results are shown in FIG. 10.

With `O=C(O)CN(CCCCNC(CCCCN(CC(=O)O)CC(=O)O)C(=O)O)CC(=O)O` (stereo not shown) [compound of the Comparative Example, reference compound] the “cytokine IL-1β secretion level” value was “negligible”.

Reference: patent US10617662B2, “Autophagy activation-induced compound for improving skin inflammation for aging” (INCOSPHARM CORPORATION, priority 2017, dated 2020)
